According to PubChem BioAssay (NCI):
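All cell lines were grown in 96-well plates and treated with compound for 48 hours. GI50 is the concentration that inhibits growth by half. TGI: concentration producing complete growth inhibition.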

Assays:
Test in all cases: NCI-60 cell line screen, 48 h
SF-539 CNS = test system: SF-539 CNS
HCC-2998 colon = test system: HCC-2998 colon
UACC-62 melanoma = test system: UACC-62 melanoma
BT-549 breast = test system: BT-549 breast
MDA-MB-435 = test system: MDA-MB-435
CCRF-CEM leukemia = test system: CCRF-CEM leukemia
OVCAR-8 ovarian = test system: OVCAR-8 ovarian
OVCAR-4 ovarian = test system: OVCAR-4 ovarian
PC-3 prostate = test system: PC-3 prostate
RPMI-8226 leukemia = test system: RPMI-8226 leukemia
UACC-257 melanoma = test system: UACC-257 melanoma
T-47D breast = test system: T-47D breast
A549 NSCLC = test system: A549 NSCLC
HCT-15 colon = test system: HCT-15 colon
IGROV1 ovarian = test system: IGROV1 ovarian
NCI-H23 lung = test system: NCI-H23 lung
HOP-92 NSCLC = test system: HOP-92 NSCLC
SF-295 CNS = test system: SF-295 CNS
HS 578T breast = test system: HS 578T breast
SR leukemia = test system: SR leukemia
HL-60(TB) leukemia = test system: HL-60(TB) leukemia
MDA-MB-231 breast = test system: MDA-MB-231 breast
786-0 renal = test system: 786-0 renal
SK-MEL-2 melanoma = test system: SK-MEL-2 melanoma
K-562 leukemia = test system: K-562 leukemia
DU-145 prostate = test system: DU-145 prostate
HCT-116 colon = test system: HCT-116 colon
U251 CNS = test system: U251 CNS
ACHN renal = test system: ACHN renal
CAKI-1 renal = test system: CAKI-1 renal
M14 melanoma = test system: M14 melanoma
MALME-3M melanoma = test system: MALME-3M melanoma
SK-OV-3 ovarian = test system: SK-OV-3 ovarian
HOP-62 NSCLC = test system: HOP-62 NSCLC
A498 renal = test system: A498 renal
SK-MEL-28 melanoma = test system: SK-MEL-28 melanoma
COLO 205 colon = test system: COLO 205 colon
OVCAR-5 ovarian = test system: OVCAR-5 ovarian
MCF7 breast = test system: MCF7 breast
HT29 colon = test system: HT29 colon
SW-620 colon = test system: SW-620 colon
NCI/ADR-RES ovarian = test system: NCI/ADR-RES ovarian
NCI-H460 lung = test system: NCI-H460 lung
KM12 colon = test system: KM12 colon
UO-31 renal = test system: UO-31 renal
NCI-H522 lung = test system: NCI-H522 lung
SN12C renal = test system: SN12C renal
NCI-H226 lung = test system: NCI-H226 lung
TK-10 renal = test system: TK-10 renal
SNB-19 CNS = test system: SNB-19 CNS
OVCAR-3 ovarian = test system: OVCAR-3 ovarian
SNB-75 CNS = test system: SNB-75 CNS
SK-MEL-5 melanoma = test system: SK-MEL-5 melanoma
SF-268 CNS = test system: SF-268 CNS
RXF 393 renal = test system: RXF 393 renal
LOX IMVI melanoma = test system: LOX IMVI melanoma
MOLT-4 leukemia = test system: MOLT-4 leukemia

Work on `O=c1c2sc3ccccc3c2nnn1-c1ccc(F)c(Cl)c1` yielded a GI50 (SF-539 CNS) of 11.9 µM, a TGI (SF-539 CNS) of 27.7 µM and a GI50 (HCC-2998 colon) of 24.8 µM. The TGI (HCC-2998 colon) was over 100 µM, the GI50 (UACC-62 melanoma) was 11.7 µM and the TGI (UACC-62 melanoma) was 38.8 µM. The GI50 (BT-549 breast) was 31.7 µM, the TGI (BT-549 breast) was 95 µM and the GI50 (MDA-MB-435) was over 100 µM. For the same compound, the TGI (MDA-MB-435) was over 100 µM, the GI50 (CCRF-CEM leukemia) was 4.03 µM and the TGI (CCRF-CEM leukemia) was 16.9 µM. For the same compound, the GI50 (OVCAR-8 ovarian) was 5.16 µM, the TGI (OVCAR-8 ovarian) was over 100 µM and the GI50 (OVCAR-4 ovarian) was 3.39 µM. For the same compound, the TGI (OVCAR-4 ovarian) was over 100 µM, the GI50 (PC-3 prostate) was 7.76 µM and the TGI (PC-3 prostate) was over 100 µM. For the same compound, the GI50 (RPMI-8226 leukemia) was 13.4 µM, the TGI (RPMI-8226 leukemia) was 41.4 µM and the GI50 (UACC-257 melanoma) was 29.4 µM. The TGI (UACC-257 melanoma) was over 100 µM, the GI50 (T-47D breast) was 8.12 µM and the TGI (T-47D breast) was over 100 µM. The GI50 (A549 NSCLC) was 3.75 µM, the TGI (A549 NSCLC) was over 100 µM and the GI50 (HCT-15 colon) was 20.3 µM. The TGI (HCT-15 colon) was over 100 µM, the GI50 (IGROV1 ovarian) was 3.66 µM and the TGI (IGROV1 ovarian) was 38 µM. For the same compound, the GI50 (NCI-H23 lung) was 15.7 µM, the TGI (NCI-H23 lung) was 62.8 µM and the GI50 (HOP-92 NSCLC) was 1.25 µM. For the same compound, the TGI (HOP-92 NSCLC) was 4.89 µM, the GI50 (SF-295 CNS) was 2.56 µM and the TGI (SF-295 CNS) was 8.59 µM. The GI50 (HS 578T breast) was 2.68 µM, the TGI (HS 578T breast) was 10.4 µM and the GI50 (SR leukemia) was 7.99 µM. It also gave a TGI (SR leukemia) of 22.7 µM, a GI50 (HL-60(TB) leukemia) of 56.6 µM and a TGI (HL-60(TB) leukemia) of over 100 µM. The GI50 (MDA-MB-231 breast) was 3.99 µM, the TGI (MDA-MB-231 breast) was 26.1 µM and the GI50 (786-0 renal) was 3.62 µM. The TGI (786-0 renal) was 11.5 µM, the GI50 (SK-MEL-2 melanoma) was 14.8 µM and the TGI (SK-MEL-2 melanoma) was 35 µM. It also gave a GI50 (K-562 leukemia) of 14.8 µM, a TGI (K-562 leukemia) of 39.4 µM and a GI50 (DU-145 prostate) of 15.6 µM. For the same compound, the TGI (DU-145 prostate) was over 100 µM, the GI50 (HCT-116 colon) was 3.6 µM and the TGI (HCT-116 colon) was 20.9 µM. The GI50 (U251 CNS) was 4.76 µM, the TGI (U251 CNS) was 24.9 µM and the GI50 (ACHN renal) was 3.88 µM. The TGI (ACHN renal) was 27.2 µM, the GI50 (CAKI-1 renal) was 3.65 µM and the TGI (CAKI-1 renal) was over 100 µM. It also gave a GI50 (M14 melanoma) of 30 µM, a TGI (M14 melanoma) of over 100 µM and a GI50 (MALME-3M melanoma) of 8.17 µM. For the same compound, the TGI (MALME-3M melanoma) was 54.6 µM, the GI50 (SK-OV-3 ovarian) was 3.17 µM and the TGI (SK-OV-3 ovarian) was 9.92 µM. It also gave a GI50 (HOP-62 NSCLC) of 2.17 µM, a TGI (HOP-62 NSCLC) of 5.66 µM and a GI50 (A498 renal) of 5.82 µM. The TGI (A498 renal) was 24.2 µM, the GI50 (SK-MEL-28 melanoma) was over 100 µM and the TGI (SK-MEL-28 melanoma) was over 100 µM. It also gave a GI50 (COLO 205 colon) of 3.93 µM, a TGI (COLO 205 colon) of over 100 µM and a GI50 (OVCAR-5 ovarian) of 20.8 µM. It also gave a TGI (OVCAR-5 ovarian) of over 100 µM, a GI50 (MCF7 breast) of 20.4 µM and a TGI (MCF7 breast) of over 100 µM. For the same compound, the GI50 (HT29 colon) was over 100 µM, the TGI (HT29 colon) was over 100 µM and the GI50 (SW-620 colon) was over 100 µM. The TGI (SW-620 colon) was over 100 µM, the GI50 (NCI/ADR-RES ovarian) was 17.1 µM and the TGI (NCI/ADR-RES ovarian) was over 100 µM. For the same compound, the GI50 (NCI-H460 lung) was 4.2 µM, the TGI (NCI-H460 lung) was over 100 µM and the GI50 (KM12 colon) was 17.4 µM. The TGI (KM12 colon) was over 100 µM, the GI50 (UO-31 renal) was 2.13 µM and the TGI (UO-31 renal) was over 100 µM. For the same compound, the GI50 (NCI-H522 lung) was 20.2 µM, the TGI (NCI-H522 lung) was over 100 µM and the GI50 (SN12C renal) was 15.1 µM. It also gave a TGI (SN12C renal) of over 100 µM, a GI50 (NCI-H226 lung) of 8.87 µM and a TGI (NCI-H226 lung) of over 100 µM. The GI50 (TK-10 renal) was 4.63 µM, the TGI (TK-10 renal) was 13.8 µM and the GI50 (SNB-19 CNS) was 4.16 µM. For the same compound, the TGI (SNB-19 CNS) was 34.4 µM, the GI50 (OVCAR-3 ovarian) was 21.2 µM and the TGI (OVCAR-3 ovarian) was over 100 µM. It also gave a GI50 (SNB-75 CNS) of 2.01 µM, a TGI (SNB-75 CNS) of 8.89 µM and a GI50 (SK-MEL-5 melanoma) of 39.3 µM. It also gave a TGI (SK-MEL-5 melanoma) of over 100 µM, a GI50 (SF-268 CNS) of 15 µM and a TGI (SF-268 CNS) of 55 µM. The GI50 (RXF 393 renal) was 5.21 µM, the TGI (RXF 393 renal) was 22.4 µM and the GI50 (LOX IMVI melanoma) was 3.9 µM. For the same compound, the TGI (LOX IMVI melanoma) was over 100 µM, the GI50 (MOLT-4 leukemia) was 14.9 µM and the TGI (MOLT-4 leukemia) was 32.5 µM.
